According to US6740670B2, “Thiazolidine derivatives and its use as antifungal agent” (Oxford Glycosciences (UK) Ltd., priority 2000, dated 2004):

Experiments:
[1] = tested on: Candida albicans (strain SC5314); assay: G418 sensitivity assay; type: cell-based; settings: G418 100 μg/ml, overnight at 37° C., OD600 nm, concentration giving 50% reduction in cell growth relative to culture with G418 alone
Description: This assay is based upon the observed increased sensitivity of the pmt1−/− Candida strain to Geneticin (G418) (6). 100 μl of a 0.1OD600 nm culture of Candida albicans (strain SC5314) is placed into a 96 well plate in the presence or absence of varying concentrations of test compound. The compounds are initially dissolved in DMSO and added to the cultures at a final DMSO concentration of 1%. G418 is added to a final concentration of 100 μg/ml. In the absence of PMT1 inhibition, this concentration of G418 has no effect on the proliferation of the organism. The cultures are grown overnight at 37° C. and cell density is then estimated by an OD600 nm measurement. The effect of the test compound is calculated as the concentration that gives a 50% reduction in cell growth relative to the culture with G418 alone.

[2] = molecular target: T1, Candida albicans PMT-1 enzyme (Candida albicans, UniProt O74189); assay: PMT-1 assay; type: biochemical; settings: Candida albicans membrane protein, peptide DYATAV, dolicholphospho-[3H]-mannose, 60 minutes at 25° C., pH 8.0; read-out: PMT-1 Inhibition (IC50)
T1 construct: 25 μg of Candida albicans membrane protein; endogenous in cells
T1 sequence (O74189 1-877): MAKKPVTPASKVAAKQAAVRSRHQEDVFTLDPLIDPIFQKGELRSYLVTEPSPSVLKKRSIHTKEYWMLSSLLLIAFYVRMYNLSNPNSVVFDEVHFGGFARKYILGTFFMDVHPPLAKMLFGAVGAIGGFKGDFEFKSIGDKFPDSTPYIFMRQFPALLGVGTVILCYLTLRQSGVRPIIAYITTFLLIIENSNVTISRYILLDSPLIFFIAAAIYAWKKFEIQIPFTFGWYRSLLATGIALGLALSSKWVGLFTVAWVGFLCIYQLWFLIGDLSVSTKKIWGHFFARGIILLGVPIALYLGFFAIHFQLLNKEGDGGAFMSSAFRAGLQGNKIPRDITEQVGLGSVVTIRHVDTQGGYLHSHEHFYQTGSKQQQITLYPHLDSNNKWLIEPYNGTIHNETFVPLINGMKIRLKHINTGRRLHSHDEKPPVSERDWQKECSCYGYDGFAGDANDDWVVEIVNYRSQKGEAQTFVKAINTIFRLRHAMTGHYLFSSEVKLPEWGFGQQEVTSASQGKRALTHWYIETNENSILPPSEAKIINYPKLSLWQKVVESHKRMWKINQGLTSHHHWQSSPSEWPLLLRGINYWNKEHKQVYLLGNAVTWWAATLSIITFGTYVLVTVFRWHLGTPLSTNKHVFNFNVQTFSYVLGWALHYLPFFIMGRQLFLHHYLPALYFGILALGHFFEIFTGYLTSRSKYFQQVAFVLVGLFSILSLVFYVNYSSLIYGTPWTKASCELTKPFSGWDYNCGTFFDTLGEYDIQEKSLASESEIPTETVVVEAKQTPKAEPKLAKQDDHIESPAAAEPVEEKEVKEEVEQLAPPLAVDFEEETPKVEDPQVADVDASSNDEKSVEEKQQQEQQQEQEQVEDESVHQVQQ
Description: The assay method is based upon the transfer of a radiolabelled mannose moiety from dolicholphosphomannose onto a threonine hydroxyl residue in a short peptide, as catalysed by the Candida albicans PMT-1 enzyme. Dolicholphospho-[^3H]-mannose is synthesised enzymatically from GDP-[^3H]-mannose and purified by chloroform: methanol extraction.
100000 Dpm of the generated substrate is incubated with 400 μg phosphatidylcholine, 25 μg of peptide (DYATAV) and 25 μg of Candida albicans membrane protein in a final volume of 50 μl in 100 mM Tris/1 mM MgCl2 buffer, pH 8.0. After 60 minutes at 25° C., the reaction is stopped with 50 μl of methanol. The unreacted radiolabel is removed by the addition of 150 μl of 0.4 g/ml octadecyl-functionalised silica (C18) in methanol. The C18 material is removed by centrifugation and the activity transferred to the peptide is counted in the supernatant.

Row | IC50 [1] [nM] | IC50 [2] [nM] | melting point [°C] | Structure (SMILES)
1 | 1500 | 2500 | – | CCCCCN(CCCCC)C(=O)c1cc(/C=C2\SC(=S)N(CC(=O)O)C2=O)ccc1OCc1ccccc1 [Example 34, 5-[[[3-(N,N-Dipentylamino)carbonyl-4-(phenylmethoxy)]-phenyl]methylene]-4-oxo-2-thioxo-3-thiazolidineacetic acid]
2 | 650 | 600 | 204 to 209 | C[C@@H](c1ccccc1)N(Cc1ccccc1)C(=O)c1cc(/C=C2\SC(=S)N(CC(=O)O)C2=O)ccc1OCc1ccccc1 [Example 35, 5-[[[3-((S)-N-Benzyl-N-alpha-methylbenzylamino)carbonyl-4-(phenyl-methoxy)]-phenyl]methylene]-4-oxo-2-thioxo-3-thiazolidineacetic acid]
3 | 700 | 700 | – | CCCCCN(CCCCC)C(=O)c1cc(/C=C2\SC(=S)N(CC(=O)O)C2=O)ccc1OCc1ccc(F)cc1F [Example 49, 5-[[[3-(N,N-Dipentylamino)carbonyl-4-[(2,4-difluorophenyl)-methoxy]]phenyl]methylene]-4-oxo-2-thioxo-3-thiazolidineacetic acid]
